Measured values from the supplement of paper PMC5844555.

Columns and labels:
Assay in all cases: 3' UTR reporter interaction score (median-centred robust z-score of log2 firefly/Renilla activity); higher = less repression of the 3' UTR reporter
Conditions in all cases: HEK293T; 48 h
[1] = tested on: PHOX2B
Summary of the method: (§1)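 The interaction score is based on the log-transformed firefly/Renilla luciferase ratio, scaled as a robust z-score within each plate by median and median absolute deviation and median-centred for each miRNA; more negative scores indicate interaction. It was averaged over at least two independent screens. Readings were taken 48 h after HEK293T cells (10,000/well, 96-well plates) were co-transfected by DharmaFECT Duo with 100 ng firefly luc2P 3' UTR reporter, 20 ng Renilla pRL-TK and 2.5 pmol miRNA mimic.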

[2] = tested on: TP53
Summary of the method: as §1

[3] = tested on: MYB
Summary of the method: as §1

[4] = tested on: RB1
Summary of the method: as §1

[5] = tested on: MYCN
Summary of the method: as §1

[6] = tested on: MYT1L
Summary of the method: as §1

[7] = tested on: BRCA2
Summary of the method: as §1

[8] = tested on: EZH2
Summary of the method: as §1

[9] = tested on: NOTCH1
Summary of the method: as §1

[10] = tested on: MYC
Summary of the method: as §1

[11] = tested on: HRAS
Summary of the method: as §1

[12] = tested on: FBXW7
Summary of the method: as §1

[13] = tested on: ZEB2
Summary of the method: as §1

[14] = tested on: PHF6
Summary of the method: as §1

Sequence	3' UTR reporter interaction score [1]	3' UTR reporter interaction score [2]	3' UTR reporter interaction score [3]	3' UTR reporter interaction score [4]	3' UTR reporter interaction score [5]	3' UTR reporter interaction score [6]	3' UTR reporter interaction score [7]	3' UTR reporter interaction score [8]	3' UTR reporter interaction score [9]	3' UTR reporter interaction score [10]	3' UTR reporter interaction score [11]	3' UTR reporter interaction score [12]	3' UTR reporter interaction score [13]	3' UTR reporter interaction score [14]
UCUCUGGAGGGAAGCACUUUCUG	-0.501	0.306	-1.99	-0.609	-0.393	-1.64	1.47	1.18	-2.09	0.317	-0.075	0.444	-2.97	1.92
UCUGGCUCCGUGUCUUCACUCC	1.22	0.211	-1.3	0.119	1.42	1.3	0.156	0.8	-2.05	-0.629	1.54	-0.481	1.83	-0.567
UCUUGGAGUAGGUCAUUGGGUGG	-1.26	0.12	-0.086	-0.403	-0.819	-0.548	0.0799	0.166	-0.846	0.457	1.18	-2.32	1.13	1.13
UCUUGUGUUCUCUAGAUCAGU	-1.16	-0.0759	0.224	0.632	0.747	-0.612	0.0649	0.661	-0.00434	-0.281	0.641	-0.787	0.366	-1.56
UCUUUGGUUAUCUAGCUGUAUGA	-0.756	-1.13	-0.0519	0.127	-0.305	-0.093	-0.397	0.57	-0.836	-0.165	0.757	0.588	0.948	0.471
UGAAACAUACACGGGAAACCUCUU	-0.468	-0.757	-0.521	-0.893	-2.74	0.0487	0.436	0.948	2.03	-4.26	-0.108	1.59	0.135	2.68
UGAAGGUCUACUGUGUGCCAG	0.626	1.34	0.992	-1.18	0.394	-2.06	-0.173	0.277	-0.37	-0.0308	-0.000203	0.56	0.194	-1.33
UGACAACUAUGGAUGAGCUCU	-0.766	0.025	0.977	-2.61	0.478	0.836	-0.499	0.197	-0.339	0.174	-0.056	0.175	0.125	-0.469
UGAGAACUGAAUUCCAUAGGCU	-0.835	-0.401	0.897	-0.182	0.165	0.753	-1.45	0.351	-0.287	0.179	-0.193	-1.39	0.486	0.668
